The results in this text go back to patent US12018059B2, “Human amylin analog polypeptides and methods of use” (Intarcia Therapeutics, Inc., priority 2018, dated 2024).

Starred links: 1 amine or outer side, 2 acyl side, 3 side chain; linkers in the order of their positions; H or OH if unused. Positions of bridges follow the written chain, without caps; N, C: chain ends. Non-standard residues stand in square brackets, D forms with d. Residues, ends and D or L forms follow the SMILES beside them. Groups on a side chain read outwards from the residue. *: point of attachment. C20 diacid = O=C(O)CCCCCCCCCCCCCCCCCCC(=O)*; C17 diacid = O=C(O)CCCCCCCCCCCCCCCC(=O)*; γGlu = O=C(O)[C@H](CCC(=O)[*:2])N[*:1]; HOOC(CH2)6CO = O=C(O)CCCCCCC(=O)*; Palmitoyl = CCCCCCCCCCCCCCCC(=O)*; AEEA = NCCOCCOCC(=O)O

This series in a line: in vivo. Further details: species or system Sprague-Dawley rats. The following applies: rat, iv, 0.033 mg/kg. Here is the method: Peptides were dissolved in sterile saline and administered as a 1-hour intravenous infusion to non-fasted male Sprague-Dawley rats (n=3 per group) via femoral vein cannula at a final dose of 0.033 mg/kg. […] Blood samples (approximately 250 μL) were collected for pharmacokinetic analysis via a jugular vein cannula at 0.25, 0.5, 0.75, 1, 1.17, 1.33, 1.5, 2, 4, 6, 8, 24, 30 and 48 hr post-start of infusion into microtainer tubes containing K2EDTA as anticoagulant and 25 μL of a protease inhibitor cocktail. Plasma was prepared by centrifugation and stored at −80° C. until analysis. The results of this analysis are shown in Table 9 and few exemplars in FIGS. 3a-3b. […]
A 60 μL aliquot of each plasma sample was placed into to a 96-well plate. To each well was added 6 μL of 0.5% Tween-20. Plates were then vortexed mixed for 10 minutes at 1200 rpm before 180 μL of 0.1% TFA in 2:1 ethanol:acetonitrile containing an appropriate internal standard was added to each well. Plates were vortex mixed for 5 min at 1300 rpm, and then centrifuged for 10 min at 2844×g. Supernatants (180 μL) were placed into a clean 96-well plate and evaporated under a nitrogen stream at 45° C. Residues were reconstituted in 80 μL of 20% acetonitrile (aq) containing 0.1% formic acid.
A […] aliquot of each plasma sample was diluted with […] of 10 mM ammonium acetate (pH 6.8) containing an appropriate internal standard and loaded onto an Oasis WCX microElution plate (Waters Corporation, Milford, MA) that had been pre-conditioned with […] of methanol and […] of deionized water. Samples were washed with […] of 5% ammonium hydroxide (aq) followed by […] of 20% acetonitrile in water. The analyte was eluted with […] of 5% formic acid in 75:25 acetonitrile:water. The eluent was dried under a nitrogen stream. Residues were reconstituted in 80 μL of 20% acetonitrile (aq) containing 0.1% formic acid.
All calibration standards were prepared in control rat plasma containing K2EDTA and protease inhibitor cocktail.
Samples and standards were analyzed by TurbolonSpray™ UPLC-MS/MS using a system consisting of a CTC HTS PAL auto-injector (Leap, Carrboro, NC), an Agilent Infinity 1290 system with column oven (Palo Alto, CA), a Valco switching valve (Houston, TX), and either an AB Sciex API 5600 TripleTOF™ or Sciex API 4000QTrap mass spectrometer (Framingham, MA). Samples were injected onto a 2.1×50 mm reverse phase C18 analytical column, typically a Waters CORTECS UPLC C18+, 1.6 μm (Waters Corporation, Milford, MA) or similar. […] Initial conditions consisted of 90% A and 10% B. The organic component was increased to 95% B over a period of 3-4 minutes, depending on the peptide. Typical flow rates were 600 μL/min. The column temperature was held constant at 40 or 50° C. Peptides were quantified by monitoring one or more product ions produced from a multiply charged parent ion.

In the case of `CCCCCCCCCCCCCCCC(=O)N[C@@H](CCC(=O)NCCCC[C@H](NC(=O)[C@H](CC(N)=O)NC(=O)[C@H](C)NC(=O)[C@H](CC(C)C)NC(=O)[C@H](CCCNC(=N)N)NC(=O)[C@H](CCC(N)=O)NC(=O)[C@@H](NC(=O)[C@H](C)NC(=O)[C@@H]1CSSC[C@H](NC(=O)[C@@H](N)CO)C(=O)N[C@@H](CC(N)=O)C(=O)N[C@@H]([C@@H](C)O)C(=O)N[C@@H](CO)C(=O)N[C@@H]([C@@H](C)O)C(=O)N1)[C@@H](C)O)C(=O)N[C@@H](CC(C)C)C(=O)N[C@@H](Cc1c[nH]cn1)C(=O)N[C@@H](CCCCN)C(=O)N[C@@H](CO)C(=O)N[C@@H](CO)C(=O)N[C@@H](CC(N)=O)C(=O)N[C@@H](CC(N)=O)C(=O)N[C@@H](Cc1ccccc1)C(=O)NCC(=O)N1CCC[C@H]1C(=O)N[C@H](C(=O)N[C@@H](CC(C)C)C(=O)N1CCC[C@H]1C(=O)N1CCC[C@H]1C(=O)N[C@H](C(=O)N[C@@H](CCCCN)C(=O)N[C@H](C(=O)NCC(=O)N[C@@H](CO)C(=O)N[C@@H](CCC(=O)O)C(=O)N[C@H](C(=O)N[C@@H](Cc1ccc(O)cc1)C(N)=O)[C@@H](C)O)C(C)C)[C@@H](C)O)[C@@H](C)CC)C(=O)O` [Compound A42] (H-SCNTSTCATQRLANK([γGlu-Palmitoyl])LHKSSNNFGPILPPTKVGSETY-NH2; disulfide 2-7), the volume of distribution (Vd) stood at 0.552 L/kg, the clearance worked out at 23.7 mL/min/kg and the half-life is 0.391 h.

`CCCCCCCCCCCCCCCC(=O)N[C@@H](CCC(=O)N[C@@H](CCC(=O)N[C@@H](CCC(=O)N[C@@H](CCC(=O)N[C@@H](CCC(=O)NCCCC[C@@H](NC(=O)[C@H](CCC(=O)O)NC(=O)[C@H](CC(N)=O)NC(=O)[C@H](C)NC(=O)[C@H](CC(C)C)NC(=O)[C@H](CCCNC(=N)N)NC(=O)[C@H](CCC(N)=O)NC(=O)[C@@H](NC(=O)[C@H](C)NC(=O)[C@@H]1CSSC[C@H](NC(=O)[C@@H](N)CO)C(=O)N[C@@H](CC(N)=O)C(=O)N[C@@H]([C@@H](C)O)C(=O)N[C@@H](CO)C(=O)N[C@@H]([C@@H](C)O)C(=O)N1)[C@@H](C)O)C(=O)N[C@@H](Cc1c[nH]cn1)C(=O)N[C@@H](CCCCN)C(=O)N[C@@H](CO)C(=O)N[C@@H](CO)C(=O)N[C@@H](CC(N)=O)C(=O)N[C@@H](CC(N)=O)C(=O)N[C@@H](Cc1ccccc1)C(=O)NCC(=O)N1CCC[C@H]1C(=O)N[C@H](C(=O)N[C@@H](CC(C)C)C(=O)N1CCC[C@H]1C(=O)N1CCC[C@H]1C(=O)N[C@H](C(=O)N[C@@H](CCCCN)C(=O)N[C@H](C(=O)NCC(=O)N[C@@H](CO)C(=O)N[C@@H](CCC(=O)O)C(=O)N[C@H](C(=O)N[C@@H](Cc1ccc(O)cc1)C(N)=O)[C@@H](C)O)C(C)C)[C@@H](C)O)[C@@H](C)CC)C(=O)O)C(=O)O)C(=O)O)C(=O)O)C(=O)O` [Compound A91] (H-SCNTSTCATQRLANE[dK]([γGlu-γGlu-γGlu-γGlu-γGlu-Palmitoyl])HKSSNNFGPILPPTKVGSETY-NH2; disulfide 2-7) showed a Vd of 0.194 L/kg, a clearance of 0.194 mL/min/kg and a half-life of 13.2 h.

As for `CC[C@H](C)[C@H](NC(=O)[C@@H]1CCCN1C(=O)CNC(=O)[C@H](Cc1ccccc1)NC(=O)[C@H](CC(N)=O)NC(=O)[C@H](CC(N)=O)NC(=O)[C@H](CO)NC(=O)[C@H](CO)NC(=O)[C@H](CCCCN)NC(=O)[C@H](Cc1c[nH]cn1)NC(=O)[C@H](CC(C)C)NC(=O)[C@H](CCCCNC(=O)CCCCCCC(=O)O)NC(=O)[C@H](CC(N)=O)NC(=O)[C@H](C)NC(=O)[C@H](CC(C)C)NC(=O)[C@H](CCCNC(=N)N)NC(=O)[C@H](CCC(N)=O)NC(=O)[C@@H](NC(=O)[C@H](C)NC(=O)[C@@H]1CSSC[C@H](NC(=O)[C@@H](N)CO)C(=O)N[C@@H](CC(N)=O)C(=O)N[C@@H]([C@@H](C)O)C(=O)N[C@@H](CO)C(=O)N[C@@H]([C@@H](C)O)C(=O)N1)[C@@H](C)O)C(=O)N[C@@H](CC(C)C)C(=O)N1CCC[C@H]1C(=O)N1CCC[C@H]1C(=O)N[C@H](C(=O)N[C@@H](CCCCN)C(=O)N[C@H](C(=O)NCC(=O)N[C@@H](CO)C(=O)N[C@@H](CCC(=O)O)C(=O)N[C@H](C(=O)N[C@@H](Cc1ccc(O)cc1)C(N)=O)[C@@H](C)O)C(C)C)[C@@H](C)O` [Compound A18] (H-SCNTSTCATQRLANK(HOOC(CH2)6CO)LHKSSNNFGPILPPTKVGSETY-NH2; disulfide 2-7), the Vd turned out to be 0.805 L/kg, the clearance came to 19.4 mL/min/kg and the half-life is 0.508 h.

`CC[C@H](C)[C@H](NC(=O)[C@@H]1CCCN1C(=O)CNC(=O)[C@H](Cc1ccccc1)NC(=O)[C@H](CC(N)=O)NC(=O)[C@H](CC(N)=O)NC(=O)[C@H](CO)NC(=O)[C@H](CO)NC(=O)[C@H](CCCCN)NC(=O)[C@H](Cc1c[nH]cn1)NC(=O)[C@H](CC(C)C)NC(=O)[C@@H](CCCCNC(=O)CC[C@H](NC(=O)CC[C@H](NC(=O)COCCOCCNC(=O)COCCOCCNC(=O)CC[C@H](NC(=O)CCCCCCCCCCCCCCCCCCC(=O)O)C(=O)O)C(=O)O)C(=O)O)NC(=O)[C@H](CC(N)=O)NC(=O)[C@H](C)NC(=O)[C@H](CC(C)C)NC(=O)[C@H](CCCNC(=N)N)NC(=O)[C@H](CCC(N)=O)NC(=O)[C@@H](NC(=O)[C@H](C)NC(=O)[C@@H]1CSSC[C@H](NC(=O)[C@@H](N)CO)C(=O)N[C@@H](CC(N)=O)C(=O)N[C@@H]([C@@H](C)O)C(=O)N[C@@H](CO)C(=O)N[C@@H]([C@@H](C)O)C(=O)N1)[C@@H](C)O)C(=O)N[C@@H](CC(C)C)C(=O)N1CCC[C@H]1C(=O)N1CCC[C@H]1C(=O)N[C@H](C(=O)N[C@@H](CCCCN)C(=O)N[C@H](C(=O)NCC(=O)N[C@@H](CO)C(=O)N[C@@H](CCC(=O)O)C(=O)N[C@H](C(=O)N[C@@H](Cc1ccc(O)cc1)C(N)=O)[C@@H](C)O)C(C)C)[C@@H](C)O` [Compound A101] (H-SCNTSTCATQRLAN[dK]([γGlu-γGlu-AEEA-AEEA-γGlu-C20 diacid])LHKSSNNFGPILPPTKVGSETY-NH2; disulfide 2-7; N-terminus assumed) gave a distribution volume (Vd) of 0.149 L/kg, a clearance of 0.0675 mL/min/kg and a half-life of 28.4 h.

Consider `CC[C@H](C)[C@H](NC(=O)[C@@H]1CCCN1C(=O)CNC(=O)[C@H](Cc1ccccc1)NC(=O)[C@H](CC(N)=O)NC(=O)[C@H](CC(N)=O)NC(=O)[C@H](CO)NC(=O)[C@H](CO)NC(=O)[C@H](CCCCN)NC(=O)[C@H](Cc1c[nH]cn1)NC(=O)[C@H](CCCCNC(=O)CCCCCCCCCCCCCCCC(=O)O)NC(=O)[C@H](CCC(=O)O)NC(=O)[C@H](CC(N)=O)NC(=O)[C@H](C)NC(=O)[C@H](CC(C)C)NC(=O)[C@H](CCCNC(=N)N)NC(=O)[C@H](CCC(N)=O)NC(=O)[C@@H](NC(=O)[C@H](C)NC(=O)[C@@H]1CSSC[C@H](NC(=O)[C@@H](N)CO)C(=O)N[C@@H](CC(N)=O)C(=O)N[C@@H]([C@@H](C)O)C(=O)N[C@@H](CO)C(=O)N[C@@H]([C@@H](C)O)C(=O)N1)[C@@H](C)O)C(=O)N[C@@H](CC(C)C)C(=O)N1CCC[C@H]1C(=O)N1CCC[C@H]1C(=O)N[C@H](C(=O)N[C@@H](CCCCN)C(=O)N[C@H](C(=O)NCC(=O)N[C@@H](CO)C(=O)N[C@@H](CCC(=O)O)C(=O)N[C@H](C(=O)N[C@@H](Cc1ccc(O)cc1)C(N)=O)[C@@H](C)O)C(C)C)[C@@H](C)O` [Compound A79] (H-SCNTSTCATQRLANEK(C17 diacid)HKSSNNFGPILPPTKVGSETY-NH2; disulfide 2-7; N-terminus assumed), for which, for the setting “male, Sprague-Dawley”, the Vd was found to be 0.115 L/kg, the clearance was found to be 0.162 mL/min/kg and the half-life was 7.8 h.

As usually defined, the Vd is the apparent volume that relates the amount in the body to the concentration in plasma or blood. Higher therefore signals wide distribution into tissue. What is called clearance is the volume of plasma or blood freed of the substance per unit of time. A high value points to a high capacity for elimination. A word on the half-life: it is how long it takes for the measured level to halve.
